# According to patent publication US20090137553A1, “Thiazepine Oxazolidinones as Antibacterial Agents” (Pharmacia and Upjohn Company LLC, priority 2004, published 2009):
# Key:
# Assay type in all cases: cell-based
# S. pneumoniae (SV-1) = assay: In vitro antibacterial activity (MIC), S. pneumoniae; conditions: Streptococcus pneumoniae; strain SV-1; lowest concentration preventing macroscopically visible growth; read-out: Minimum Inhibitory concentrations S. pneumoniae (SV-1)
# Description: (§1) The in vitro antibacterial activity of the compounds of the present invention may be assessed by following procedures recommended in (1) National Committee for Clinical Laboratory Standards (January 2003), Methods for dilution antimicrobial tests for bacteria that grow aerobically, Approved Standard (6th ed), M7-A6, NCCLS, Wayne, Pa.; (2) National Committee for Clinical Laboratory Standards (March 2001), Methods for antimicrobial susceptibility testing of anaerobic bacteria, Approved Standard (5th ed), M11-A4, NCCLS, Wayne, Pa.; (3) National Committee for Clinical Laboratory Standards (January 2003), MIC testing supplemental tables, M100-S13 (for use with M7-A6), NCCLS, Wayne, Pa.; and (4) Murray P R, Baron E J, Jorgensen J H, et al. Manual of Clinical Microbiology (8th ed) Washington, D.C.: American Society for Microbiology Press, 2003. The antibacterial activity can be presented in the form of MIC value. The MIC value is the lowest concentration of drug which prevented macroscopically visible growth under the conditions of the test.
# S. pyogenes (C203) = assay: In vitro antibacterial activity (MIC), S. pyogenes; conditions: Streptococcus pyogenes; strain C203; lowest concentration preventing macroscopically visible growth; read-out: Minimum Inhibitory concentrations S. pyogenes (C203)
# Description: as §1
# S. aureus (UC-76) = assay: In vitro antibacterial activity (MIC), S. aureus; conditions: Staphylococcus aureus, UC76; strain UC-76; lowest concentration preventing macroscopically visible growth; read-out: Minimum Inhibitory concentrations S. aureus (UC-76)
# Description: as §1
MIC (S. pneumoniae (SV-1)),MIC (S. pyogenes (C203)),MIC (S. aureus (UC-76)),Structure (SMILES)
8 µg/mL,4 µg/mL,4 µg/mL,"CONC(=O)[C@H]1CN(c2cc(F)c(N3CCCS(=O)(=O)CC3)c(F)c2)C(=O)O1 [Example 5, 3-[4-(1,1-dioxo-1λ^6-[1,4]thiazepan-4-yl)-3,5-difluoro-phenyl]-2-oxo-oxazolidine-5-carboxylic acid methoxy-amide]"
4 µg/mL,2 µg/mL,2 µg/mL,"CNC(=O)[C@H]1CN(c2cc(F)c(N3CCCS(=O)(=O)CC3)c(F)c2)C(=O)O1 [Example 4, 3-[4-(1,1-dioxo-1λ^6-[1,4]thiazepan-4-yl)-3,5-difluoro-phenyl]-2-oxo-oxazolidine-5-carboxylic acid methylamide]"
2 µg/mL,1 µg/mL,12 µg/mL,"CNC(=O)[C@H]1CN(c2ccc(N3CCCS(=O)(=O)CC3)c(F)c2)C(=O)O1 [Example 13, 5(R)-3-[4-(1,1-dioxo-1λ^6-[1,4]thiazepan-4-yl)-3-fluoro-phenyl]-2-oxo-oxazolidine-5-carboxylic acid methyl amide]"
4 µg/mL,1 µg/mL,2 µg/mL,"CNC(=O)[C@H]1CN(c2ccc(N3CCC[S+]([O-])CC3)c(F)c2)C(=O)O1 (stereo partly drawn) [Example 11, 5(R)-3-[-fluoro-4-(1-oxo-1λ^4-[1,4]thiazepan-4yl)-phenyl]-2-oxo-oxazolidine-5-carboxylic acid methyl amide]"
8 µg/mL,4 µg/mL,8 µg/mL,"CNC(=O)[C@H]1CN(c2ccc(N3CCCSCC3)c(F)c2)C(=O)O1 [Example 9, 5(R)-3-[3-Fluoro-4-(1,4-thiazepan-4-yl)-phenyl]-2-oxo-oxazolidine-5-carboxylic acid methylamide]"
4 µg/mL,2 µg/mL,2 µg/mL,"NC(=O)[C@H]1CN(c2cc(F)c(N3CCCS(=O)(=O)CC3)c(F)c2)C(=O)O1 [Example 3, 3-[4-(1,1-dioxo-1λ^6-[1,4]thiazepan-4-yl)-3,5-difluoro-phenyl]-2-oxo-oxazolidine-5-carboxylic acid amide]"

# More lines, now with the values behind:
Structure (SMILES),MIC (S. pneumoniae (SV-1)),MIC (S. pyogenes (C203)),MIC (S. aureus (UC-76))
"NC(=O)[C@H]1CN(c2cc(F)c(N3CCCSCC3)c(F)c2)C(=O)O1 [Example 1, 3-[3,5-difluoro-4-(1,4-thiazepan-4-yl)-phenyl]-2-oxo-oxazolidine-5-carboxylic acid amide]",4 µg/mL,2 µg/mL,2 µg/mL
"CNC(=O)[C@H]1CN(c2cc(F)c(N3CCCSCC3)c(F)c2)C(=O)O1 [Example 2, 3-[3,5-difluoro-4-(1,4-thiazepan-4-yl)-phenyl]-2-oxo-oxazolidine-5-carboxylic acid methylamide]",4 µg/mL,2 µg/mL,2 µg/mL
"CNC(=O)[C@H]1CN(c2cc(F)c(N3CCC/S(=N\C(=O)C(F)(F)F)CC3)c(F)c2)C(=O)O1 (stereo in doubt) [Example 7, 3-{3,5-difluoro-4-[1-(2,2,2-trifluoro-acetylimino)-1λ^4-[1,4]thiazepan-4-yl]-phenyl}-2-oxo-oxazolidine-5-carboxylic acid methylamide]",8 µg/mL,8 µg/mL,8 µg/mL
"NC(=O)[C@H]1CN(c2ccc(N3CCC[S+]([O-])CC3)c(F)c2)C(=O)O1 (stereo partly drawn) [Example 12, 5(R)-3-[3-fluoro4-(1-oxo-1-[1,4]thiazepan-4-yl)-phenyl]-2-oxo-oxazolidine-5-carboxylic acid amide]",4 µg/mL,1 µg/mL,2 µg/mL
"NC(=O)[C@H]1CN(c2cc(F)c(N3CCC/S(=N\C(=O)C(F)(F)F)CC3)c(F)c2)C(=O)O1 (stereo partly drawn) [Example 6, 3-{3,5-difluoro-4-[1-(2,2,2-trifluoro-acetylimino)-114-[1,4]thiazepan-4-yl]-phenyl}-2-oxo-oxazolidine-5-carboxylic acid amide]",8 µg/mL,8 µg/mL,8 µg/mL
